Measured values reported in PubChem BioAssay (NCI).
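Tested at 5 concentrations; 48 h exposure; 96-well plates; endpoints linearly interpolated, else capped at highest concentration. TGI: total growth inhibition.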

Assays:
Experiment in all cases: DTP human tumour cell line panel, 48 h
[1] = test system: OVCAR-5 ovarian
[2] = test system: LOX IMVI melanoma
[3] = test system: M19-MEL melanoma
[4] = test system: SK-MEL-2 melanoma
[5] = test system: NCI-H226 lung
[6] = test system: MALME-3M melanoma
[7] = test system: M14 melanoma
[8] = test system: OVCAR-3 ovarian
[9] = test system: XF 498 CNS
[10] = test system: SK-OV-3 ovarian
[11] = test system: HL-60(TB) leukemia
[12] = test system: SW-620 colon
[13] = test system: OVCAR-8 ovarian
[14] = test system: KM12 colon
[15] = test system: HT29 colon
[16] = test system: MOLT-4 leukemia
[17] = test system: HCC-2998 colon
[18] = test system: NCI-H23 lung
[19] = test system: NCI-H460 lung
[20] = test system: IGROV1 ovarian
[21] = test system: HCT-15 colon
[22] = test system: LXFL 529 NSCLC
[23] = test system: HOP-18 NSCLC
[24] = test system: UACC-257 melanoma
[25] = test system: UACC-62 melanoma
[26] = test system: SK-MEL-5 melanoma
[27] = test system: CAKI-1 renal
[28] = test system: UO-31 renal
[29] = test system: SF-295 CNS
[30] = test system: DMS 114 small cell lung
[31] = test system: U251 CNS
[32] = test system: TK-10 renal
[33] = test system: SF-539 CNS
[34] = test system: HOP-92 NSCLC
[35] = test system: SNB-19 CNS
[36] = test system: HCT-116 colon
[37] = test system: 786-0 renal
[38] = test system: OVCAR-4 ovarian
[39] = test system: SNB-78 CNS
[40] = test system: SF-268 CNS
[41] = test system: RXF-631 renal
[42] = test system: CCRF-CEM leukemia
[43] = test system: EKVX NSCLC
[44] = test system: SK-MEL-28 melanoma
[45] = test system: SN12C renal
[46] = test system: COLO 205 colon
[47] = test system: ACHN renal
[48] = test system: RPMI-8226 leukemia
[49] = test system: NCI-H522 lung
[50] = test system: DLD-1 colon
[51] = test system: RXF 393 renal
[52] = test system: A549 NSCLC
[53] = test system: HOP-62 NSCLC
[54] = test system: K-562 leukemia
[55] = test system: DMS 273 small cell lung
[56] = test system: SR leukemia
[57] = test system: A498 renal
[58] = test system: SNB-75 CNS

SMILES: CCOC(=O)C(=O)Nc1cccc(Cl)c1C
- TGI [1]: > 100 µM
- TGI [2]: > 100 µM
- TGI [3]: > 100 µM
- TGI [4]: > 100 µM
- TGI [5]: > 100 µM
- TGI [6]: > 100 µM
- TGI [7]: > 100 µM
- TGI [8]: > 100 µM
- TGI [9]: > 100 µM
- TGI [10]: > 100 µM
- TGI [11]: > 100 µM
- TGI [12]: > 100 µM
- TGI [13]: > 100 µM
- TGI [14]: > 100 µM
- TGI [15]: > 100 µM
- TGI [16]: > 100 µM
- TGI [17]: > 100 µM
- TGI [18]: > 100 µM
- TGI [19]: > 100 µM
- TGI [20]: > 100 µM
- TGI [21]: > 100 µM
- TGI [22]: > 100 µM
- TGI [23]: > 100 µM
- TGI [24]: > 100 µM
- TGI [25]: > 100 µM
- TGI [26]: > 100 µM
- TGI [27]: > 100 µM
- TGI [28]: > 100 µM
- TGI [29]: > 100 µM
- TGI [30]: > 100 µM
- TGI [31]: > 100 µM
- TGI [32]: > 100 µM
- TGI [33]: > 100 µM
- TGI [34]: > 100 µM
- TGI [35]: > 100 µM
- TGI [36]: > 100 µM
- TGI [37]: > 100 µM
- TGI [38]: > 100 µM
- TGI [39]: > 100 µM
- TGI [40]: > 100 µM
- TGI [41]: > 100 µM
- TGI [42]: > 100 µM
- TGI [43]: > 100 µM
- TGI [44]: > 100 µM
- TGI [45]: > 100 µM
- TGI [46]: > 100 µM
- TGI [47]: > 100 µM
- TGI [48]: > 100 µM
- TGI [49]: > 100 µM
- TGI [50]: > 100 µM
- TGI [51]: > 100 µM
- TGI [52]: > 100 µM
- TGI [53]: > 100 µM
- TGI [54]: > 100 µM

SMILES: O=C1NC(=O)C2C1c1[nH]c3ccccc3c1C1CCCC12 (centres undefined)
- TGI [1]: > 100 µM
- TGI [2]: > 100 µM
- TGI [3]: > 100 µM
- TGI [5]: 51.7 µM
- TGI [6]: > 100 µM
- TGI [7]: > 100 µM
- TGI [8]: 5.64 µM
- TGI [9]: 6.85 µM
- TGI [10]: 45.4 µM
- TGI [12]: > 100 µM
- TGI [13]: 64.5 µM
- TGI [55]: 12.6 µM
- TGI [14]: > 100 µM
- TGI [15]: > 100 µM
- TGI [16]: > 100 µM
- TGI [17]: > 100 µM
- TGI [18]: > 100 µM
- TGI [19]: > 100 µM
- TGI [20]: > 100 µM
- TGI [21]: > 100 µM
- TGI [22]: > 100 µM
- TGI [23]: 83.8 µM
- TGI [56]: > 100 µM
- TGI [25]: > 100 µM
- TGI [26]: 8.66 µM
- TGI [28]: > 100 µM
- TGI [29]: 6.56 µM
- TGI [30]: 29.5 µM
- TGI [31]: 22.6 µM
- TGI [32]: > 100 µM
- TGI [57]: 26.6 µM
- TGI [33]: 11.8 µM
- TGI [35]: > 100 µM
- TGI [37]: > 100 µM
- TGI [38]: > 100 µM
- TGI [39]: > 100 µM
- TGI [40]: 39.1 µM
- TGI [41]: > 100 µM
- TGI [42]: > 100 µM
- TGI [43]: > 100 µM
- TGI [44]: > 100 µM
- TGI [45]: > 100 µM
- TGI [46]: 32.1 µM
- TGI [47]: > 100 µM
- TGI [48]: > 100 µM
- TGI [50]: > 100 µM
- TGI [51]: 24.4 µM
- TGI [52]: > 100 µM
- TGI [58]: 6.29 µM
- TGI [54]: > 100 µM
